Test results as given in paper PMC9972480, “Synthesis of Quinoline and Dihydroquinoline Embelin Derivatives as Cardioprotective Agents” (Journal of Natural Products, 2023).

Legend:
[1] = MTT cell viability assay (cytotoxicity) in H9c2 cardiomyocytes; type: cell-based, rat; settings: rat, H9c2 cardiomyocytes, 24 h, MTT; for viability at 24 h, 10 µM / viability at 24 h, 20 µM: mean ± SD, n = 3; for IC50 at 24 h: H9c2 cardiomyocytes (embryonic heart-derived cells), stated for both types of cells
Procedure: (§1) The potential cytotoxicity of embelin (1) together with derivatives (4a–4m, 5a–5d, 6a–6m) was tested in cardiomyocytes and macrophages in order to ensure that compounds lack toxicity also in immune cells. Cell viability was determined by the MTT assay.[58] Four dihydroquinoline derivatives (4b, 4f, 4i, and 4m) and six quinoline compounds (6a, 6d, 6e, 6i, 6k, and 6m) maintained higher viable cell rates in both types of cells. IC50 values of these derivatives were higher than 40 μM and were selected for further analysis.
(§2) J774A.1 murine macrophage cells, H9c2 embryonic rat heart-derived cells, and MCF-7 breast cancer cells were purchased from American Type Cell Culture (ATCC, Manassas, VA, USA). Cells were cultured in Dulbecco’s modified Eagle medium with 10% fetal bovine serum and 1% penicillin/streptomycin (Lonza) and were maintained at 37 °C in a humidified incubator containing 5% CO2.
(§3) Cell viability was assessed by conducting an MTT [3-(4,5-dimethylthiazol-2-yl)-2,5-diphenyltetrazolium bromide dye] assay. Briefly, J 774A.1, H9c2, and MCF7 cells were seeded in 96-well plates for 24 h. Then, cells were treated with DOX in the absence or presence of compounds. MTT (Sigma) reagent was added to the medium for 1 h at 37 °C. Then, the formazan was dissolved in dimethyl sulfoxide (DMSO, 100 μL). Absorbance was measured at 540 nm with a microplate reader (BMG Labtech).

[2] = MTT cell viability assay (cytotoxicity) in J774 macrophages; type: cell-based, murine; settings: mouse
Procedure: as §1, §2, §3

ROS in H9c2 cells = assay: Intracellular ROS levels, DCFH-DA assay; type: cell-based, rat; settings: compound 20 μM + DOX 1 μM, 24 h, vs DOX-treated cells
Procedure: Oxidative stress is produced by an imbalance between radical oxygen species (ROS) formation and endogenous antioxidant activation in reaction to cell injury, leading to myocardial toxicity. Accordingly, DOX-induced ROS production in the H9c2 cells was quantified with the DCFH-DA fluorogenic dye. […] No effects on ROS production were observed when compounds were incubated alone with cells. […] The inhibitory effects of embelin derivatives were similar to those induced by N-acetyl-cysteine (NAC), a well-known antioxidant.
Figure 5 Derivatives 4i, 6a, 6d, 6k, and 6m reduced ROS levels produced by DOX in H9c2 cells. Levels of ROS in H9c2 cells were measured fluorometrically after treatment with DOX (1 μM) alone or co-treatment with N-acetyl cysteine (NAC, 1 mM) or selected derivatives (20 μM) for 24 h, using the 2′,7′-dichlorfluorescein-diacetate (DCFH-DA) assay. Values are expressed as mean ± SD with respect to DOX-treated cells (n = 3). ****p < 0.0001 vs DOX-treated cells.
Intracellular ROS levels in H9c2 cells were evaluated by monitoring the oxidation of 2′,7′-dichlorfluorescein-diacetate (DCFH-DA) (Sigma) to fluorescent dichlorofluorescein. Cells were treated with DOX (1 μM) in the absence or presence of compounds or NAC as ROS inhibitor (1 mM) (Sigma). Then, cells were incubated with 10 μM DCFH-DA at 37 °C in the dark for 30 min. ROS level was fluorimetrically evaluated at 485/550 nm during 24 h.

[3] = test system: MCF-7 human breast tumor cells; assay: Effect on chemotherapeutic activity of DOX, MTT; type: cell-based; settings: MCF-7 cells, compound 20 μM + DOX 1 μM, 24 h
Procedure: Next, cytotoxicity of the selected compounds was also tested in MCF-7 breast cancer cells to disconfirm that protective effects might antagonize the antitumor effects of doxorubicin.
Figure 4 Effects of derivatives 4i, 6a, 6d, 6e, 6k, and 6m on the chemotherapeutic activity of DOX in MCF-7 human breast tumor cells. Cells were co-treated with selected compounds at 20 μM and DOX (1 μM) for 24 h. Cell viability was measured by MTT assay. Results are reported as mean of cell viability ± SD (n = 3). ****p < 0.0001 vs DOX-treated cells.
as §3

SMILES	viability at 24 h, 10 µM [1]	viability at 24 h, 20 µM [1]	melting point	viability at 24 h, 10 µM [2]	viability at 24 h, 20 µM [2]	IC50 at 24 h [1]	ROS production on co-treatment with DOX (ROS in H9c2 cells)	IC50 at 24 h [2]	Effect on antitumor (chemotherapeutic) activity of DOX [3]
CCCCCCCCCCCC1=C(O)C(=O)C2=C(Nc3cc(C)cc(C)c3C2c2ccc([N+](=O)[O-])cc2)C1=O (centres unmarked) [Compound 4l, 2-Hydroxy-6,8-dimethyl-9-(4-nitrophenyl)-3-undecyl-9,10-dihydroacridine-1,4-dione]	98.2 ± 6.6%	88.3 ± 6.1%	260 to 262 °C	46.7 ± 6.6%	33.1 ± 4.5%				
CCCCCCCCCCCC1=C(O)C(=O)c2c(nc3ccccc3c2-c2ccc([N+](=O)[O-])cc2)C1=O [Compound 6a, 2-Hydroxy-9-(4-nitrophenyl)-3-undecylacridine-1,4-dione]	97.6 ± 7%	87.8 ± 6.9%		96.3 ± 2.1%	76.9 ± 2.8%	> 40 µM	significantly inhibited ROS production	> 40 µM	without reducing DOX’s chemotherapeutic effect
CCCCCCCCCCCC1=C(O)C(=O)C2=C(Nc3ccccc3C2c2ccc([N+](=O)[O-])cc2)C1=O (centres unmarked) [Compound 4a, 2-Hydroxy-9-(4-nitrophenyl)-3-undecyl-9,10-dihydroacridine-1,4-dione]	94.8 ± 3.5%	89.4 ± 0.6%	164 to 166 °C	50 ± 5.6%	43.7 ± 2%				
CCCCCCCCCCCC1=C(O)C(=O)C2=C(Nc3ccccc3C2c2ccsc2)C1=O (centres unmarked) [Compound 4h, 2-Hydroxy-9-(thiophen-3-yl)-3-undecyl-9,10-dihydroacridine-1,4-dione]	92.5 ± 6.6%	75.8 ± 2.3%	190 to 192 °C	84.9 ± 2.6%	51.4 ± 2.9%				
CCCCCCCCCCCC1=C(O)C(=O)C2=C(Nc3ccccc3C2c2ccccc2)C1=O (centres unmarked) [Compound 4b, 2-Hydroxy-9-phenyl-3-undecyl-9,10-dihydroacridine-1,4-dione]	98.1 ± 6.8%	95.8 ± 7.7%	161 to 162 °C	99.7 ± 1.1%	98.7 ± 1.2%	> 40 µM		> 40 µM	
CCCCCCCCCCCC1=C(O)C(=O)C2=C(Nc3ccccc3C2c2ccc(Br)cc2)C1=O (centres unmarked) [Compound 4d, 2-Hydroxy-9-(4-bromophenyl)-3-undecyl-9,10-dihydroacridine-1,4-dione]	99.5 ± 2.7%	98.9 ± 6.1%	139 to 140 °C	38.5 ± 5.9%	32.9 ± 3.4%				
CCCCCCCCCCCC1=C(O)C(=O)C2=C(Nc3ccccc3C2c2ccc(Cl)cc2)C1=O (centres unmarked) [Compound 4c, 2-Hydroxy-9-(4-chlorophenyl)-3-undecyl-9,10-dihydroacridine-1,4-dione]	98.9 ± 3.4%	93.9 ± 2.3%	139 to 141 °C	49.1 ± 3.4%	39.5 ± 3.6%				
CCCCCCCCCCCC1=C(O)C(=O)C2=C(Nc3ccccc3C2c2ccc(F)cc2)C1=O (centres unmarked) [Compound 4e, 2-Hydroxy-9-(4-fluorophenyl)-3-undecyl-9,10-dihydroacridine-1,4-dione]	93.4 ± 7.2%	83.7 ± 1.5%	140 to 142 °C	57.3 ± 3.8%	44.6 ± 3.3%				
CCCCCCCCCCCC1=C(O)C(=O)c2c(nc3ccc(Br)cc3c2-c2ccc([N+](=O)[O-])cc2)C1=O [Compound 6m, 7-Bromo-2-hydroxy-9-(4-nitrophenyl)-3-undecylacridine-1,4-dione]	89.8 ± 7.6%	85.9 ± 8.2%		99.6 ± 4.6%	86.4 ± 8.7%	> 40 µM	significantly inhibited ROS production	> 40 µM	without reducing DOX’s chemotherapeutic effect
CCCCCCCCCCCC1=C(O)C(=O)C2=C(Nc3ccccc3C2c2ccc(OC)c(OC)c2)C1=O (centres unmarked) [Compound 4j, 2-Hydroxy-9-(3,4-dimethoxyphenyl)-3-undecyl-9,10-dihydroacridine-1,4-dione]	68.9 ± 3.6%	60.6 ± 4.9%	152 to 154 °C	89.1 ± 5.5%	36.9 ± 3.8%				
CCCCCCCCCCCC1=C(O)C(=O)C2=C(Nc3ccccc3C2c2cccc(F)c2)C1=O (centres unmarked) [Compound 4f, 2-Hydroxy-9-(3-fluorophenyl)-3-undecyl-9,10-dihydroacridine-1,4-dione]	88.7 ± 5.3%	81.1 ± 2.9%	240 to 242 °C	99.5 ± 1.3%	97.8 ± 0.6%	> 40 µM		> 40 µM	
CCCCCCCCCCCC1=C(O)C(=O)C2=C(Nc3ccccc3C2c2ccc(C(=O)OC)cc2)C1=O (centres unmarked) [Compound 4g, Methyl 4-(2-hydroxy-1,4-dioxo-3-undecyl-1,4,9,10-tetrahydroacridin-9-yl)benzoate]	72.6 ± 1.1%	62.1 ± 1.3%	146 to 148 °C	31.2 ± 5.3%	29.6 ± 3.9%				
CCCCCCCCCCCC1=C(O)C(=O)C2=C(Nc3ccc(OC)cc3C2c2ccc([N+](=O)[O-])cc2)C1=O (centres unmarked) [Compound 4k, 2-Hydroxy-7-methoxy-9-(4-nitrophenyl)-3-undecyl-9,10-dihydroacridine-1,4-dione]	99.7 ± 1.1%	90.7 ± 1.5%	153 to 155 °C	55.6 ± 6.7%	37.8 ± 4.8%				
CCCCCCCCCCCC1=C(O)C(=O)C2=C(Nc3ccc(Br)cc3C2c2ccc([N+](=O)[O-])cc2)C1=O (centres unmarked) [Compound 4m, 7-Bromo-2-hydroxy-9-(4-nitrophenyl)-3-undecyl-9,10-dihydroacridine-1,4-dione]	96.5 ± 5.5%	96.2 ± 4.8%	236 to 237 °C	94.7 ± 4.2%	77.2 ± 4.9%	> 40 µM		> 40 µM	
CCCCCCCCCCCC1=C(O)C(=O)c2c(nc3ccccc3c2-c2ccc(C(=O)OC)cc2)C1=O [Compound 6g, Methyl 4-(2-hydroxy-1,4-dioxo-3-undecyl-1,4-dihydroacridin-9-yl)benzoate]	88.7 ± 10.4%	70.6 ± 3%		78.4 ± 5.7%	42.2 ± 0.3%				
CCCCCCCCCCCC1=C(O)C(=O)c2c(nc3ccccc3c2-c2ccc(Br)cc2)C1=O [Compound 6d, 2-Hydroxy-9-(4-bromophenyl)-3-undecylacridine-1,4-dione]	99.4 ± 0.2%	99.3 ± 2.6%		82.1 ± 3.7%	74.5 ± 3.9%	> 40 µM	significantly inhibited ROS production	> 40 µM	without reducing DOX’s chemotherapeutic effect
CCCCCCCCCCCC1=C(O)C(=O)C=C(Nc2ccc(Br)cc2)C1=O [Compound 5c, 5-((4-Bromophenyl)amino)-2-hydroxy-3-undecylcyclohexa-2,5-diene-1,4-dione]	61.9 ± 2.7%	56.1 ± 3.4%		56.9 ± 5.5%	39.4 ± 5.3%				
